# Data: US20080176862A1, “New Compounds 617” (ASTRAZENECA AB, priority 2006, published 2008)
# Molecular target: T1, human β-Secretase (soluble part, AA1-AA460; sBACE-Fc) (Homo sapiens, UniProt P56817)
# T1 construct: The soluble part of the human β-Secretase (AA1-AA460) was cloned into the ASP2-Fc10-1-IRES-GFP-neoK mammalian expression vector; made in house
# Test: TR-FRET assay
# Type: biochemical
# Details: substrate (Europium)CEVNLDAEFK(Qsy7) 100 nM, pH 4.5, 15 min at RT; read-out: IC50 (nM) in TR-FRET assay
# T1 sequence (P56817 22-460): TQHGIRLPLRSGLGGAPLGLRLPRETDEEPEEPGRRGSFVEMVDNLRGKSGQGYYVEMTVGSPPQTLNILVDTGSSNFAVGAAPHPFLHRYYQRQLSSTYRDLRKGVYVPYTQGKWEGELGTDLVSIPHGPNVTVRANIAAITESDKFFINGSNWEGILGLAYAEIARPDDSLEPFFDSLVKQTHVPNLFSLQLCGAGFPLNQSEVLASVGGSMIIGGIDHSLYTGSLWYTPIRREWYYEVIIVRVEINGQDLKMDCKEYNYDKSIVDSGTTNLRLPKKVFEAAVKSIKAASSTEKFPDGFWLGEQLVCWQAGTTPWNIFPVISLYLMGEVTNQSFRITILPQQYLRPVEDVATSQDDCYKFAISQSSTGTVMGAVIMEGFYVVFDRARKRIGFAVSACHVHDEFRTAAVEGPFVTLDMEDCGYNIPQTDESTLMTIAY
row,IC50 [nM],Compound
1,410,"CN1C(=O)C(c2ccc(OS(C)(=O)=O)cc2)(c2ccc(F)c(C3CCCCC3)c2)N=C1N (centres unmarked) [Example 300, 4-[2-Amino-4-(3-cyclohexyl-4-fluorophenyl)-1-methyl-5-oxo-4,5-dihydro-1H-imidazol-4-yl]phenyl methanesulfonate 0.5 acetate]"
2,349,"COc1ccc(OC(F)(F)F)c(-c2cc(C3(c4ccc(OS(C)(=O)=O)cc4)N=C(N)N(C)C3=O)ccc2F)c1 (centres unmarked) [Example 168, 4-{2-Amino-4-[6-fluoro-5′-methoxy-2′-(trifluoromethoxy)biphenyl-3-yl]-1-methyl-5-oxo-4,5-dihydro-1H-imidazol-4-yl}phenyl methanesulfonate]"
3,183,"COc1ccc(OC)c(S(=O)(=O)Oc2ccc(C3(c4ccc(F)c(-c5cncnc5)c4)N=C(N)N(C)C3=O)cc2)c1 (centres unmarked) [Example 277, 4-[2-Amino-4-(4-fluoro-3-pyrimidin-5-ylphenyl)-1-methyl-5-oxo-4,5-dihydro-1H-imidazol-4-yl]phenyl 2,5-dimethoxybenzenesulfonate]"
4,236,"CCCS(=O)(=O)Oc1cccc(C2(c3ccc(F)c(-c4cccnc4)c3)N=C(N)N(C)C2=O)c1 (centres unmarked) [Example 97, 3-[2-Amino-4-(4-fluoro-3-pyridin-3-ylphenyl)-1-methyl-5-oxo-4,5-dihydro-1H-imidazol-4-yl]phenylpropane-1-sulfonate]"
5,115,"COc1ccc(C(C)=O)c(-c2cc(C3(c4ccc(OS(C)(=O)=O)cc4)N=C(N)N(C)C3=O)ccc2F)c1 (centres unmarked) [Example 289, 4-[4-(2′-Acetyl-6-fluoro-5′-methoxybiphenyl-3-yl)-2-amino-1-methyl-5-oxo-4,5-dihydro-1H-imidazol-4-yl]phenyl methanesulfonate]"
6,180,"CCCS(=O)(=O)Oc1cccc(C2(c3ccc(F)c(-c4cccc(OC)c4)c3)N=C(N)N(C)C2=O)c1 (centres unmarked) [Example 101, 3-[2-Amino-4-(6-fluoro-3′-methoxybiphenyl-3-yl)-1-methyl-5-oxo-4,5-dihydro-1H-imidazol-4-yl]phenyl propane-1-sulfonate]"

row,Compound,IC50 [nM]
1,"CN1C(=O)C(c2ccc(OC(F)F)cc2)(c2cccc(-c3cc(Cl)cc(OS(C)(=O)=O)c3)c2)N=C1N (centres unmarked) [Example 64, 3′-{2-Amino-4-[4-(difluoromethoxy)phenyl]-1-methyl-5-oxo-4,5-dihydro-1H-imidazol-4-yl}-5-chlorobiphenyl-3-ylmethanesulfonate]",28
2,"CN1C(=O)C(c2cccc(OS(=O)(=O)N(C)C)c2)(c2ccc(F)c(-c3cccnc3F)c2)N=C1N (centres unmarked) [Example 110, 3-{2-Amino-4-[4-fluoro-3-(2-fluoropyridin-3-yl)phenyl]-1-methyl-5-oxo-4,5-dihydro-1H-imidazol-4-yl}phenyldimethylsulfamate]",114
